Columns and labels:
mammalian SIRT1 [1] = experiment: p53 deacetylation in A549 cells treated with corylin and nicotinamide, Western blotting; format: cell-based, human; conditions: nicotinamide 1 hour before corylin, then UV, FIG. 6
Protocol: Nicotinamide is a mammalian SIRT1 inhibitor (Exp Hematol. 2012; 40(4): 342-55), and the compound is used to confirm the foregoing result. After human lung cancer A549 cells were cultured at 37° C. overnight, the cells were treated with a media containing nicotinamide, and then cultured at 37° C. for 1 hour. Corylin in various concentrations was added to the media, and the cells were cultured at 37° C. for 4 hours. After which, the cells were emitted with UV to acetylate p53, and cultured at 37° C. for 4 hours again. Finally, the total protein in the cells were extracted and analyzed using Western blotting.

sir2-mutant yeast cells = experiment: Replicative life span of sir2-mutant yeast cells (passage number); format: cell-based; conditions: sir2-mutant yeast cells treated with corylin; untreated 9.8; FIG. 2
Protocol: (§1) A yeast colony was selected and cultured in a YEPD culture media. When the OD value of the media was at 0.6-0.8, 20 μl of the media was added to a YEPD solid media, and then 20-30 yeast cells were selected using a tetrad dissection microscope manipulation system. The selected yeast cells were cultured at 30° C. for 3-5 hours to divide into first generation yeast cells. Afterwards, the first generation yeast cells were cultured at 30° C. for 3-5 hours to divide into second generation yeast cells. The culturing step was repeated until final generation yeast cells which cannot divide anymore existed. Finally, the yeast cells' passage number was counted according to the total division number.

p53 [2] = experiment: UV-induced p53 acetylation in human osteosarcoma U2OS cells, Western blotting; format: cell-based; conditions: corylin in various concentrations, 4 hours before UV, FIG. 5C
Protocol: (§2) After human lung cancer A549 cells or human osteosarcoma U2OS cells were cultured at 37° C. overnight, the cells were treated with various substances, and then cultured at 37° C. for 4 hours. After that, the cells were emitted with UV to acetylate p53, and cultured at 37° C. for 4 hours again. Finally, total protein extracted from the cells was analyzed using Western blotting.

p53 [3] = experiment: UV-induced p53 acetylation in human lung cancer A549 cells, Western blotting; format: cell-based; conditions: corylin in various concentrations, 4 hours before UV, FIG. 5B
Protocol: as §2

wild type yeast cells = experiment: Replicative life span of wild type yeast cells (passage number); format: cell-based
Protocol: as §1

mammalian SIRT1 [4] = experiment: Mammalian SIRT1 expression in human osteosarcoma U2OS cells, Western blotting; format: cell-based; conditions: increases with culturing period, FIG. 5A
Protocol: Human osteosarcoma U2OS cells were seeded and cultured at 37° C. overnight, and then the cells were treated with corylin and cultured at 37° C. again. After various culturing periods, total protein in the treated cells was extracted and analyzed using Western blotting.

PNC1 [5] = experiment: PNC1 translation (Pnc1 protein) in corylin-treated yeast cells, Western blotting; format: cell-based; conditions: 50 μM corylin for 10 hours; compared with calorie restriction for 10 hours as positive control; FIG. 4C
Protocol: To confirm the foregoing result, after yeast cells were treated with corylin in various concentrations for various periods, total protein therein was extracted and analyzed using Western blotting.

PNC1 [6] = experiment: PNC1 transcription in corylin-treated yeast cells (PCR and real-time PCR); format: cell-based; conditions: various treatment periods; increases with treatment period; FIGS. 4A and 4B
Protocol: After yeast cells were treated with corylin for various periods, total RNA in the treated yeast cells was extracted. Then, the cDNA corresponding to the extracted RNA was formed using reverse transcription. Finally, the cDNA was analyzed using polymerase chain reaction and real-time polymerase chain reaction.

## NC(=O)c1cccnc1 [nicotinamide, Nicotinamide]
Mammalian SIRT1 [1]
  effect on p53 deacetylation caused by corylin: can inhibit the p53 deacetylation caused by corylin

## corylin
sir2-mutant yeast cells
  passage number (replicative life span): 10.6
p53 [2]
  acetylation of p53 induced by UV: can repress the acetylation of p53 induced by UV
p53 [3]
  acetylation of p53 induced by UV: can repress the acetylation of p53 induced by UV
Wild type yeast cells; FIG. 3
  effective concentration on replicative life span of a yeast cell: 2 to 100 µM
Wild type yeast cells; FIG. 3, 'preferably'
  preferable effective concentration on replicative life span of a yeast cell: 2 to 15 µM
Wild type yeast cells; wild type yeast cells treated with corylin, untreated 26.9, FIG. 2
  passage number (replicative life span): 33.2
Mammalian SIRT1 [4]
  mammalian SIRT1 expression: can promote the expression of mammalian SIRT1
PNC1 [5]
  Pnc1 expression (PNC1 translation): can obviously express Pnc1
PNC1 [6]
  PNC1 transcription: can promote the transcription of PNC1

Source: US20170035724A1, “MAMMALIAN SIRT1 ACTIVATOR” (priority 2015, published 2017)
